Results published in patent US7592477B2, “Substituted methylene amide derivatives as modulators of protein tyrosine phosphatases (PTPs)” (Laboratoires Serono SA, priority 2002, dated 2009).
pIC50: −log10 of the molar value.

Tests used:
SHP-2 = molecular target: T1, SHP-2 (Homo sapiens, UniProt Q06124); experiment: PTP Enzyme Assay (DiFMUP), SHP-2; assay type: biochemical; conditions: 20 λM DiFMUP; read-out: IC50 value in respect of SHP-2
T1 construct: using the catalytic core of a human recombinant PTP as the enzyme
T1 sequence (Q06124 247-517 limits assumed): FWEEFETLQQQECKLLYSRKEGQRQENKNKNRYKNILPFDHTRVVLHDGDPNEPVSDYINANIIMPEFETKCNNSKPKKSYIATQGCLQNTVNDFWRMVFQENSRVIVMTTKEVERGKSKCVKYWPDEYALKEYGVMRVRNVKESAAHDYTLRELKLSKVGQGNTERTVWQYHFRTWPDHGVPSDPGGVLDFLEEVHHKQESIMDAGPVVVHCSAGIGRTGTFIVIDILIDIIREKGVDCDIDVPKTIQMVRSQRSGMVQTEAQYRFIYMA
Protocol: (§1) The PTP Enzyme Assay aims at determining the extent of inhibition of PTPs, e.g. of PTP1B, SHP-1, SHP-2 or GLEPP-1 in the presence of a test compound of formula (I). The inhibition is illustrated by IC50 values which denote the concentration of test compound necessary to achieve an inhibition of 50% of said PTP's using the following concentration of the PTP substrate DiFMUP: • 5 μM DiFMUP for PTP1B; • 20 […] DiFMUP for SHP-1 and SHP-2; • 30 μM DiFMUP for GLEPP-1. a) PTPs Cloning […]
(§2) Assays were performed in a 96 well plate format, using the catalytic core of a human recombinant PTP as the enzyme and 6,8-DiFluoro-4-MethylUmbelliferyl Phosphate (DiFMUP, Molecular Probes, D-6567) as a substrate. […] The reaction ran for 30 minutes at room temperature before reading the fluorescence intensity (integral or intensity) on a Perkin-Elmer Victor 2 spectrofluorimeter (excitation of 6,8-difluoro-7-hydroxy coumarin is at 355 nm, the emission at 460 nm, for 0.1 s). The percentage of inhibition is determined by measuring the relative fluorescence ion absence of a test compound (PTP inhibitor), i.e. with the solvent alone (5% DMSO). The IC50 values for inhibition were determined in triplicates.

GLEPP-1 = molecular target: T2, GLEPP-1 (Homo sapiens, UniProt Q16827); experiment: PTP Enzyme Assay (DiFMUP), GLEPP-1; assay type: biochemical; conditions: 30 μM DiFMUP; read-out: IC50 value in respect of GLEPP-1
T2 construct: using the catalytic core of a human recombinant PTP as the enzyme
T2 sequence (Q16827 938-1195 limits assumed): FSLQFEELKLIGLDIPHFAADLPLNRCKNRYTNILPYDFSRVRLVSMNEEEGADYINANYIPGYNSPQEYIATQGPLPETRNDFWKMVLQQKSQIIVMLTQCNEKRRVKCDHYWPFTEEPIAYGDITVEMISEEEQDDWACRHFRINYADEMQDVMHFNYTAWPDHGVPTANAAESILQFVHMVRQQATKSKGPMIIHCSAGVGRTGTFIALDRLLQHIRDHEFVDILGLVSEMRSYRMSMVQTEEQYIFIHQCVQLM
Protocol: as §1, §2

SHP-1 = molecular target: T3, SHP-1 (Homo sapiens, UniProt P29350); experiment: PTP Enzyme Assay (DiFMUP), SHP-1; assay type: biochemical; conditions: 20 λM DiFMUP; read-out: IC50 value in respect of SHP-1
T3 construct: using the catalytic core of a human recombinant PTP as the enzyme
T3 sequence (P29350 244-515 limits assumed): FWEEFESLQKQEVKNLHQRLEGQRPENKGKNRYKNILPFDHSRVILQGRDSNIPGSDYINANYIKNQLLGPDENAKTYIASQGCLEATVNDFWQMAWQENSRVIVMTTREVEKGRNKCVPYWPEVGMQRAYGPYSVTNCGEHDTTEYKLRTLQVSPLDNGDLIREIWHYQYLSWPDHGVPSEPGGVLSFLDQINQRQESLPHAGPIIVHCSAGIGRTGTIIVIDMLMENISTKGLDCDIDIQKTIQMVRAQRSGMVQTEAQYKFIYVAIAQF
Protocol: as §1, §2

db/db mice = experiment: In vivo assay in db/db mice (postprandial glycemia); conditions: 4 hrs after drug administration
Protocol: The following assay aims at determining the anti-diabetic effect of the test compounds of formula (I) in a model of postprandial glycemia in db/db mice, in vivo.
A total of 24 db/db mice (about 8-9 weeks; obtained from IFFACREDO, l'Arbreste, France) were fasted during 20 hours.
4 groups, each consisting of 6 animals were formed:
Group 1: The animals were administered (per os) a dose of […] of vehicle.
Group 2: The animals were administered (per os) a dose of 20 mg/kg of the test compound according to formula (I).
Group 3: The animals were administered (per os) a dose of 100 mg/kg of the test compound according to formula (I).
Group 4: The animals were administered (per os) a dose of 200 mg/kg of the test compound according to formula (I).
After oral administration of the compounds of formula (I) solubilized or suspended in CarboxyMethylCellulose (0.5%), Tween 20 (0.25%) and water as vehicle, the animals had access to commercial food (D04, UAR, Villemoisson/Orge, France) ad libitum. The diabetic state of the mice was verified by determining the blood glucose level before drug administration. Blood glucose and serum insulin levels were then determined 4 hrs after drug administration.
The determination of the blood glucose level was performed using a glucometer (Precision Q.I.D., Medisense, Abbot, ref. 212.62.31).
The determination of the Insulin level was performed using an ELISA kit (Crystal CHEM, Ref. INSK R020).
Changes in blood glucose and serum insulin of drug treated mice were expressed as a percentage of control (group 1: vehicle treated mice).

PTP1B = molecular target: T4, PTP1B (Homo sapiens, UniProt P18031); experiment: PTP Enzyme Assay (DiFMUP), PTP1B; assay type: biochemical; conditions: 5 μM DiFMUP; read-out: IC50 value in respect of PTP1B
T4 construct: The cloning and expression of the catalytic domain of PTPIB, may be performed as described in J. Biol. Chem. 2000; made in house
T4 sequence (P18031 3-277 limits assumed): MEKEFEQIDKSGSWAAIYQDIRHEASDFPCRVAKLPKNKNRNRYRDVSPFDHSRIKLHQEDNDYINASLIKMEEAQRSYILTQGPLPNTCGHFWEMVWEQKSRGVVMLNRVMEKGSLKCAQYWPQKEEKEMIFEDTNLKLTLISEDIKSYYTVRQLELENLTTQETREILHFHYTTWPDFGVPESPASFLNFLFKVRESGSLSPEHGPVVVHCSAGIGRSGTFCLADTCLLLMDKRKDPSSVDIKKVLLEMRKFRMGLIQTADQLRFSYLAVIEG
Protocol: The PTP Enzyme Assay aims at determining the extent of inhibition of PTPs, e.g. of PTP1B, SHP-1, SHP-2 or GLEPP-1 in the presence of a test compound of formula (I). The inhibition is illustrated by IC50 values which denote the concentration of test compound necessary to achieve an inhibition of 50% of said PTP's using the following concentration of the PTP substrate DiFMUP: • 5 μM DiFMUP for PTP1B; • 20 […] DiFMUP for SHP-1 and SHP-2; • 30 μM DiFMUP for GLEPP-1. a) PTPs Cloning
The cloning and expression of the catalytic domain of PTPIB, may be performed as described in J. Biol. Chem. 2000, 275(13), pp 9792-9796. […]
as §2

[1] = Group 2: db/db mice, per os 20 mg/kg
[2] = Group 3: db/db mice, per os 100 mg/kg
[3] = Group 4: db/db mice, per os 200 mg/kg

SMILES	pIC50 (SHP-2)	pIC50 (GLEPP-1)	pIC50 (SHP-1)	Decrease in blood glucose (db/db mice; [1])	Decrease in serum insulin (db/db mice; [1])	Decrease in blood glucose (db/db mice; [2])	Decrease in serum insulin (db/db mice; [2])	Decrease in blood glucose (db/db mice; [3])	Decrease in serum insulin (db/db mice; [3])	pIC50 (PTP1B)
CCCCCCCCCCCCNC(=O)c1ccc(CN(Cc2ccc(C(F)(F)F)cc2)C(=O)C(=O)O)cc1 [Example 10, {{4-[(dodecylamino)carbonyl]benzyl}[4-(trifluoromethyl)benzyl]amino}(oxo)acetic acid]	5.57	5.85	5.62	17 percentage of control	−2 percentage of control	42 percentage of control	66 percentage of control	48 percentage of control	89 percentage of control	5.65
CCCCCCCCCCCCCCCNC(=O)c1ccc(CN(Cc2ccc(C(F)(F)F)cc2)C(=O)C(=O)O)cc1 [Example 4, oxo{{4-[(pentadecylamino)carbonyl]benzyl}[4-(trifluoromethyl)benzyl]amino}acetic acid]	5.85	6.30	6.00							
